Test results from patent publication US20260090997A1, “Lipid Nanoparticles Comprising Nucleic Acids Encoding Therapeutic Genes and Uses in Medical Methods” (priority 2022, published 2026).

Test system: FADU xenografts
Test: Intratumoral NanoLuc mRNA delivery into FADU xenografts, bioluminescence
Type: in vivo, Nu/J mice
Details: LNPs containing MC3, cKK-E12, SM-102 or C12-200
Excerpt: FIG. 5A illustrates different LNPs formulated to carry NanoLuc reporter mRNA to evaluate effective intratumoral injections into FADU xenografts. To identify the most suitable ionizable lipid for intratumoral delivery, an in vivo imaging system was used to quantify the bioluminescence resulting from the functional delivery of NanoLuc mRNA using LNPs containing four different ionizable lipids: MC3, cKK-E12, SM-102, and C12-200.

**Q.** With `CCCCCCCCCCC(O)CN(CCN1CCN(CCN(CC(O)CCCCCCCCCC)CC(O)CCCCCCCCCC)CC1)CCN(CC(O)CCCCCCCCCC)CC(O)CCCCCCCCCC` (stereo not shown) [C12-200] as the compound, how does the “bioluminescence from functional delivery of NanoLuc mRNA, comparison of ionizable lipids” value read?
**A.** optimal ionizable lipid
